Assay results from US9346761B2, “Arginine methyltransferase inhibitors and uses thereof” (Epizyme, Inc., priority 2013, dated 2016).

What follows are molecules tested against T1, Full-length human PRMT3 (Homo sapiens, UniProt O60678) (assay: PRMT3 biochemical assay (3H-SAM Flashplate, peptide substrate)).
T1 construct: GST-tagged PRMT3; made in house; host or cells: E. coli BL21(DE3) Gold (pGEX-KG)
From the text: General Materials. S-adenosylmethionine (SAM), S-adenosylhomocysteine (SAH), bicine, Tween20, dimethylsulfoxide (DMSO), bovine skin gelatin (BSG),), isopropyl-β-D-thiogalactopyranoside (IPTG), and Tris(2-carboxyethyl)phosphine hydrochloride solution (TCEP) were purchased from Sigma-Aldrich at the highest level of purity possible. ^3H-SAM was purchase from American Radiolabeled Chemicals with a specific activity of 80 Ci/mmol. 384-well streptavidin Flashplates were purchased from PerkinElmer.
Substrates. Peptide containing the classic RMT substrate motif was synthesized with an N-terminal linker-affinity tag motif and a C-terminal amide cap by 21st Century Biochemicals. The peptide was purified by high-performance liquid chromatography (HPLC) to greater than 95% purity and confirmed by liquid chromatography mass spectrometry (LC-MS). The sequence was Biot-Ahx-[…]-amide (SEQ ID NO.:11).
Molecular Biology: : Full-length human PRMT3 (NM_005788.3) isoform 1 transcript clone was amplified from an HEK 293 cDNA library and subcloned into pGEX-KG (GE Life Sciences). The resulting construct encodes an N-terminal GST tag and a thrombin cleavage sequence ([…] […] […] […]) (SEQ ID NO.:12) fused directly to Cys 2 of PRMT3.
Protein Expression. E. coli (BL21(DE3) Gold, Stratagene) made competent by the CaCl2 method were transformed with the PRMT3 construct and ampicillin selection. Protein over-expression was accomplished by growing the PRMT3 expressing E. coli clone and inducing expression with 0.3 mM IPTG at 16° C. The culture was grown for 12 hours, harvested by centrifugation, and stored at −80° C. for purification.
Protein Purification. […] GST-tagged PRMT3 eluted with 25-400 mM phosphate in buffer C. Protein was concentrated and buffer was exchanged to 20 mM Tris, 150 mM NaCl, 5% glycerol, 5 mM β-mercaptoethanol, pH7.8 by ultrafiltration. The purity of recovered protein was 70%.
General Procedure for PRMT3 Enzyme Assays on Peptide Substrates. The assays were all performed in a buffer consisting of 20 mM Bicine (pH=7.6), 1 mM TCEP, 0.005% BSG, and 0.002% Tween 20, prepared on the day of use. Compounds in 100% DMSO (1 ul) were spotted into a polypropylene 384-well V-bottom plates (Greiner) using a Platemate Plus outfitted with a 384-channel head (Thermo Scientific). DMSO (1 ul) was added to Columns 11, 12, 23, 24, rows A-H for the maximum signal control and 1 ul of SAH, a known product and inhibitor of PRMT3, was added to columns 11, 12, 23, 24, rows I-P for the minimum signal control. A cocktail (40 ul) containing the PRMT3 enzyme was added by Multidrop Combi (Thermo-Fisher). The compounds were allowed to incubate with PRMT3 for 30 min at room temperature, then a cocktail (10 ul) containing SAM and peptide was added to initiate the reaction (final volume=51 ul). The final concentrations of the components were as follows: PRMT3 was 0.5 nM, ^3H-SAM was 100 nM, non-radiolabeled SAM was 1.8 uM, peptide was 330 nM, SAH in the minimum signal control wells was 1 mM, and the DMSO concentration was 2%. The assays were stopped by the addition of potassium chloride (10 ul) to a final concentration of 100 mM. 50 ul of the reaction in the 384-well polypropylene plate was then transferred to a 384-well Flashplate and the biotinylated peptides were allowed to bind to the streptavidin surface for at least 1 hour before being washed once with 0.1% Tween20 in a Biotek ELx405 plate washer. The plates were then read in a PerkinElmer TopCount plate reader to measure the quantity of ^3H-labeled peptide bound to the Flashplate surface, measured as disintegrations per minute (dpm) or alternatively, referred to as counts per minute (cpm).
Where dpm=disintegrations per minute, cmpd=signal in assay well, and min and max are the respective minimum and maximum signal controls.
Where top and bottom are the normally allowed to float, but may be fixed at 100 or 0 respectively in a 3-parameter fit. […]

T1 sequence (O60678 with tags, fused parts or gaps): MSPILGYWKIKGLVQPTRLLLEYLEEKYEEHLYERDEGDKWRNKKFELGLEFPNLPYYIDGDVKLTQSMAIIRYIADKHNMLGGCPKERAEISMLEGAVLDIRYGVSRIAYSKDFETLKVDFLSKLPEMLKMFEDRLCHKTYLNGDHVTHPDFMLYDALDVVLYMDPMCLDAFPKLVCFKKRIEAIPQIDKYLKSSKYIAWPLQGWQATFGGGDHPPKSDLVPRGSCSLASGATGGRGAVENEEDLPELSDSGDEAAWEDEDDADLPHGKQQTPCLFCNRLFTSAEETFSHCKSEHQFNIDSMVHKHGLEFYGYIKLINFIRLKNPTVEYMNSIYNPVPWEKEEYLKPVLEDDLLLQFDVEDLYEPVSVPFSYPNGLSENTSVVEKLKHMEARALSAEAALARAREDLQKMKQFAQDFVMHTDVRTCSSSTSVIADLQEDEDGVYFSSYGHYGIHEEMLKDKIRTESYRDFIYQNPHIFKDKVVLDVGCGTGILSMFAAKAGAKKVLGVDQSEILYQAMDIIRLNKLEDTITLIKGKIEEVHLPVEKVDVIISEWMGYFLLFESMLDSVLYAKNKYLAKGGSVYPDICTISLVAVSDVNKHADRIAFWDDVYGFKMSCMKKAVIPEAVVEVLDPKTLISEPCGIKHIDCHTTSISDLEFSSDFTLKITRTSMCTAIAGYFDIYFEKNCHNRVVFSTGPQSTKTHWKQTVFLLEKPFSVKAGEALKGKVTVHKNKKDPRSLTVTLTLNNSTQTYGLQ

SMILES | IC50
CC(C)CN(C)C(=O)c1ccc(-c2n[nH]cc2CN(C)CCN)cc1 [Compound 164] | > 10 µM
CN(CCN)Cc1c[nH]nc1-c1ccc(F)c(Cl)c1 [Compound 124] | 1.01 to 3 µM
CN(CCN)Cc1c[nH]nc1-c1ccc(Cl)c(F)c1 [Compound 118] | 1.01 to 3 µM
CC(C)Cc1ccc(-c2c[nH]nc2CN(C)CCN)cc1 [Compound 170] | 3.01 to 10 µM
